Patent US7659263B2, “Thienopyrrole compound and use thereof as HCV polymerase inhibitor” (Japan Tobacco Inc., priority 2004, dated 2010)
Structures can show the parent of a compound that is named as a salt.

Columns and labels:
NS5B 1b = biological target: T1, NS5B 1b (Hepatitis C virus genotype 1b, UniProt P26663); assay: Assay of enzyme (HCV polymerase) inhibitory activity, NS5B 1b; type: biochemical
T1 construct: a region encoding NS5B (J Virol 1991 March, 65(3), 1105-13, 544 amino acids after deletion of 47 amino acids on the C-terminal); 6 His (C); made in house; host or cells: Escherichia coli
T1 sequence (P26663 2420-2963): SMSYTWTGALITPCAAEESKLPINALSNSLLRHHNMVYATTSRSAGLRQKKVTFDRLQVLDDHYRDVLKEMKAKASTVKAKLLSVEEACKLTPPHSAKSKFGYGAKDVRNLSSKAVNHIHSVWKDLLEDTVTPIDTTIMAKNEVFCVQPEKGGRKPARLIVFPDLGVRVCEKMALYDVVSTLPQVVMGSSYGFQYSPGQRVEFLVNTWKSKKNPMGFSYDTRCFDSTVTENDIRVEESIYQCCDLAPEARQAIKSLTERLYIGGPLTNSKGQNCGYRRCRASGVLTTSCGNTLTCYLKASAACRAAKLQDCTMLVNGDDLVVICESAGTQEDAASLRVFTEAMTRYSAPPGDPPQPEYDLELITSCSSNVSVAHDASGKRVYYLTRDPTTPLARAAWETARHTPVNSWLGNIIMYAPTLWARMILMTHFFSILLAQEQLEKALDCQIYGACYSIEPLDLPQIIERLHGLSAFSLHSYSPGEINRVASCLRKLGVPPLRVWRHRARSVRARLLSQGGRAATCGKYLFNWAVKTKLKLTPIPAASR
Text: The evaluation of the HCV polymerase inhibitory activity of the compound of the present invention is explained in the following. This polymerase is an enzyme coded for by the non-structural protein region called NS5B on the genome RNA of HCV (EMBO J., 15:12-22, 1996).
i) Preparation of enzyme (HCV polymerase)
Using, as a template, a cDNA clone corresponding to the full length genome RNA of HCV BK strain obtained from the blood of a patient with hepatitis C, a region encoding NS5B (J Virol 1991 March, 65(3), 1105-13, 544 amino acids after deletion of 47 amino acids on the C-terminal) was amplified by PCR. The objective gene was prepared by adding a 6 His tag {base pair encoding 6 continuous histidine (His)} to the 3′ end thereof and transformed to Escherichia coli. The Escherichia coli capable of producing the objective protein was cultured. The obtained cells were suspended in a buffer solution and crushed in a microfluidizer. The supernatant was obtained by centrifugation and applied to various column chromatographys {mono-S, Sephacryl S-200 (Pharmacia)}, inclusive of metal chelate chromatography, to give a standard enzyme product.
ii) Synthesis of Substrate RNA
Using a synthetic primer designed based on the sequence of HCV genomic 3′ untranslated region, a DNA fragment (148 bp) containing polyU and 3′X sequence was entirely synthesized and cloned into plasmid pBluescript SK II(+) (Stratagene). The cDNA encoding full length NS5B, which was prepared in i) above, was digested with restriction enzyme KpnI to give a cDNA fragment containing the nucleotide sequence of from the restriction enzyme cleavage site to the termination codon. This cDNA fragment was inserted into the upstream of 3′ untranslated region of the DNA in pBluescript SK II(+) and ligated. The about 450 bp inserted DNA sequence was used as a template in the preparation of substrate RNA. This plasmid was cleaved immediately after the 3′X sequence, linearized and purified by phenol-chloroform treatment and ethanol precipitation to give DNA.
RNA was synthesized (37° C., 3 hr) by run-off method using this purified DNA as a template, a promoter of pBluescript SK II(+), MEGAscript RNA synthesis kit (Ambion) and T7 RNA polymerase. DNase I was added and the mixture was incubated for 1 hr. The template DNA was removed by decomposition to give a crude RNA product. This crude product was treated with phenol-chloroform and purified by ethanol precipitation to give the objective substrate RNA.
This RNA was applied to formaldehyde denaturation agarose gel electrophoresis to confirm the quality thereof and preserved at −80° C. iii) Assay of enzyme (HCV polymerase) inhibitory activity A test substance (compound of the present invention) and a reaction mixture (30 μl) having the following composition were reacted at 25° C. for 90 min.
10% Trichloroacetic acid at 4° C. and 1% sodium pyrophosphate solution (150 μl) were added to this reaction mixture to stop the reaction. The reaction mixture was left standing in ice for 15 min to insolubilize RNA. This RNA was trapped on a glass filter (Whatman GF/C and the like) upon filtration by suction. This filter was washed with a solution containing 1% trichloroacetic acid and 0.1% sodium pyrophosphate, washed with 90% ethanol and dried. A liquid scintillation cocktail (Packard) was added and the radioactivity of RNA synthesized by the enzyme reaction was measured on a liquid scintillation counter.
The HCV polymerase inhibitory activity (IC50) of the compound of the present invention was calculated from the values of radioactivity of the enzyme reaction with and without the 20 test substance. […]

NS5B 1a = biological target: T2, NS5B 1a (Hepatitis C virus genotype 1a, UniProt P27958); assay: Assay of enzyme (HCV polymerase) inhibitory activity, NS5B 1a; type: biochemical; settings: HCV polymerase NS5B 1a; [3H]UTP incorporation, 25° C., 90 min
T2 construct: NS5B 1a
T2 sequence (P27958 2421-3011): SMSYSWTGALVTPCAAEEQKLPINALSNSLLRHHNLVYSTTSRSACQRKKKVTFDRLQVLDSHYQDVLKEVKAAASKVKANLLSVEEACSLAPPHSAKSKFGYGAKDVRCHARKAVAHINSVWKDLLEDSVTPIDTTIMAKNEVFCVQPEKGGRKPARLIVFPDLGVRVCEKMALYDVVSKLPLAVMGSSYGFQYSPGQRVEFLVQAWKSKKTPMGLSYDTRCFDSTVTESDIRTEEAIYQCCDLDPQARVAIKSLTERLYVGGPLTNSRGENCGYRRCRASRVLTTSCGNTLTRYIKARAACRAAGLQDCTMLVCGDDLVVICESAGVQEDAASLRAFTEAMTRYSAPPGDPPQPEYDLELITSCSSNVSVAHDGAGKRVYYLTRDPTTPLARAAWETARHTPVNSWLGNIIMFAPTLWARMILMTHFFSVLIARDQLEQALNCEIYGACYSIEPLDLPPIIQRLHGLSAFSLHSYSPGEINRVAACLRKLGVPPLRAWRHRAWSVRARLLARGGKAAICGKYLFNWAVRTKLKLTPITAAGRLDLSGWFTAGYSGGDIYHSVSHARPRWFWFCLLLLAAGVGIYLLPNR

Structure (SMILES) | IC50 (NS5B 1b) | IC50 (NS5B 1a)
O=C(O)c1cc2c(s1)c(C1CCCCC1)c1n2CCN(CCN2CCCOCC2)c2ccccc2-1 [Example 24, 11-cyclohexyl-6-[2-(1,4-oxazepan-4-yl)ethyl]-5,6-dihydro-4H-1-thia-3b,6-diazabenzo[e]cyclopenta[a]azulene-2-carboxylic acid dihydrochloride] | 0.01 to 0.1 µM | 0.01 to 0.1 µM
CC1CCCN(CCN2CCn3c(c(C4CCCCC4)c4sc(C(=O)O)cc43)-c3ccccc32)C1 (centres unmarked) [Example 22, 11-cyclohexyl-6-[2-(3-methylpiperidin-1-yl)ethyl]-5,6-dihydro-4H-1-thia-3b,6-diazabenzo[e]cyclopenta[a]azulene-2-carboxylic acid dihydrochloride] | 0.01 to 0.1 µM | 0.01 to 0.1 µM
CCN1CCN(C(=O)CN2CCn3c(c(C4CCCCC4)c4sc(C(=O)O)cc43)-c3ccccc32)CC1 [Example 14, 11-cyclohexyl-6-[2-(4-ethylpiperazin-1-yl)-2-oxoethyl]-5,6-dihydro-4H-1-thia-3b,6-diazabenzo[e]cyclopenta[a]azulene-2-carboxylic acid dihydrochloride] | 0.01 to 0.1 µM | 0.01 to 0.1 µM
O=C(O)c1cc2c(s1)c(C1CCCCC1)c1n2CCN(CCN2CCCCC2)c2cc(Cl)ccc2-1 [Example 20, 8-chloro-11-cyclohexyl-6-[2-(piperidin-1-yl)ethyl]-5,6-dihydro-4H-1-thia-3b,6-diazabenzo[e]cyclopenta[a]azulene-2-carboxylic acid dihydrochloride] | 0.01 to 0.1 µM | 0.01 to 0.1 µM
COc1ccc2c(c1)OCCn1c-2c(C2CCCCC2)c2sc(C(=O)NC3(C(=O)Nc4cccc(/C=C/C(=O)O)c4)CCC3)cc21 [Example 40, (E)-3-[3-({1-[(11-cyclohexyl-8-methoxy-4,5-dihydro-6-oxa-1-thia-3b-azabenzo[e]cyclopenta[a]azulene-2-carbonyl)amino]cyclobutanecarbonyl}amino)phenyl]acrylic acid] | 0.01 to 0.1 µM | 0.01 to 0.1 µM
COC(=O)N1CCCC(Oc2ccc3c(c2)OCCn2c-3c(C3CCCCC3)c3sc(C(=O)O)cc32)C1 (centres unmarked) [Example 17, 11-cyclohexyl-8-(1-methoxycarbonylpiperidin-3-yloxy)-4,5-dihydro-6-oxa-1-thia-3b-azabenzo[e]cyclopenta[a]azulene-2-carboxylic acid] | 0.01 to 0.1 µM | 0.01 to 0.1 µM
CCN1CCN(C(=O)CN2CCn3c(c(C4CCCCC4)c4sc(C(=O)O)cc43)-c3ccc(Cl)cc32)CC1 [Example 36, 8-chloro-11-cyclohexyl-6-[2-(4-ethylpiperazin-1-yl)-2-oxoethyl]-5,6-dihydro-4H-1-thia-3b,6-diazabenzo[e]cyclopenta[a]azulene-2-carboxylic acid dihydrochloride] | 0.01 to 0.1 µM | 0.01 to 0.1 µM
O=C(O)c1cc2c(s1)c(C1CCCCC1)c1n2CCOc2ccccc2-1 [Example 15, 11-cyclohexyl-4,5-dihydro-6-oxa-1-thia-3b-azabenzo[e]cyclopenta[a]azulene-2-carboxylic acid] | 0.01 to 0.1 µM | 0.1 to 1 µM
O=C(O)c1cc2c(s1)c(C1CCCCC1)c1n2CCN(CCN2CCCCCCC2)c2ccccc2-1 [Example 21, 6-[2-(azocan-1-yl)ethyl]-11-cyclohexyl-5,6-dihydro-4H-1-thia-3b,6-diazabenzo[e]cyclopenta[a]azulene-2-carboxylic acid dihydrochloride] | < 0.01 µM | 0.01 to 0.1 µM
CCOc1ccc2c(c1)OCCn1c-2c(C2CCCCC2)c2sc(C(=O)O)cc21 [Example 41, 11-cyclohexyl-8-ethoxy-4,5-dihydro-6-oxa-1-thia-3b-azabenzo[e]cyclopenta[a]azulene-2-carboxylic acid] | 0.01 to 0.1 µM | 0.01 to 0.1 µM
O=C(O)c1cc2c(s1)c(C1CCCCC1)c1n2CCOc2c-1cccc2N(CCN1CCCCC1)CCN1CCCCC1 [Example 42, 7-{bis[2-(piperidin-1-yl)ethyl]amino}-11-cyclohexyl-4,5-dihydro-6-oxa-1-thia-3b-azabenzo[e]cyclopenta[a]azulene-2-carboxylic acid trihydrochloride] | < 0.01 µM | 0.01 to 0.1 µM
O=C(O)c1cc2c(s1)c(C1CCCCC1)c1n2CCOc2cc(OCc3cc(N4CCCC4=O)ccc3N3CCOCC3)ccc2-1 [Example 16, 11-cyclohexyl-8-[2-(morpholin-4-yl)-5-(2-oxopyrrolidin-1-yl)benzyloxy]-4,5-dihydro-6-oxa-1-thia-3b-azabenzo[e]cyclopenta[a]azulene-2-carboxylic acid hydrochloride] | < 0.01 µM | 0.01 to 0.1 µM
CS(=O)(=O)N1CCN(c2ccc(N3CCCC3=O)cc2COc2ccc3c(c2)OCCn2c-3c(C3CCCCC3)c3sc(C(=O)O)cc32)CC1 [Example 18, 11-cyclohexyl-8-[2-(4-methanesulfonylpiperazin-1-yl)-5-(2-oxopyrrolidin-1-yl)benzyloxy]-4,5-dihydro-6-oxa-1-thia-3b-azabenzo[e]cyclopenta[a]azulene-2-carboxylic acid] | < 0.01 µM | < 0.01 µM
COCC[C@@H]1CCCN(CCN2CCn3c(c(C4CCCCC4)c4sc(C(=O)O)cc43)-c3ccc(Cl)cc32)C1 [Example 31, (S)-8-chloro-11-cyclohexyl-6-{2-[3-(2-methoxyethyl)piperidin-1-yl]ethyl}-5,6-dihydro-4H-1-thia-3b,6-diazabenzo[e]cyclopenta[a]azulene-2-carboxylic acid dihydrochloride] | < 0.01 µM | 0.01 to 0.1 µM
CCOc1ccc2c(c1)N(C)CCn1c-2c(C2CCCCC2)c2sc(C(=O)NC3(C(=O)Nc4ccc(/C=C/C(=O)O)cc4)CCC3)cc21 [Example 45, (E)-3-[4-({1-[(11-cyclohexyl-8-ethoxy-6-methyl-5,6-dihydro-4H-1-thia-3b,6-diazabenzo[e]cyclopenta[a]azulene-2-carbonyl)amino]cyclobutanecarbonyl}amino)phenyl]acrylic acid] | 0.01 to 0.1 µM | 0.01 to 0.1 µM
CCOc1ccc2c(c1)N(C)CCn1c-2c(C2CCCCC2)c2sc(C(=O)O)cc21 [Example 44, 11-cyclohexyl-8-ethoxy-6-methyl-5,6-dihydro-4H-1-thia-3b,6-diazabenzo[e]cyclopenta[a]azulene-2-carboxylic acid] | 0.01 to 0.1 µM | 0.01 to 0.1 µM
Cc1ccc2c(c1)N(CCN1CCCOCC1)CCn1c-2c(C2CCCCC2)c2sc(C(=O)O)cc21 [Example 28, 11-cyclohexyl-8-methyl-6-[2-(1,4-oxazepan-4-yl)ethyl]-5,6-dihydro-4H-1-thia-3b,6-diazabenzo[e]cyclopenta[a]azulene-2-carboxylic acid dihydrochloride] | 0.01 to 0.1 µM | 0.01 to 0.1 µM
Cc1ccc2c(c1)N(C)CCn1c-2c(C2CCCCC2)c2sc(C(=O)NC3(C(=O)Nc4ccc(/C=C/C(=O)O)cc4)CCC3)cc21 [Example 38, (E)-3-[4-({1-[(11-cyclohexyl-6,8-dimethyl-5,6-dihydro-4H-1-thia-3b,6-diazabenzo[e]cyclopenta[a]azulene-2-carbonyl)amino]cyclobutanecarbonyl)amino)phenyl]acrylic acid] | 0.01 to 0.1 µM | 0.01 to 0.1 µM
Cc1ccc2c(c1)N(CCN1CCCCCCC1)CCn1c-2c(C2CCCCC2)c2sc(C(=O)O)cc21 [Example 25, 6-[2-(azocan-1-yl)ethyl]-11-cyclohexyl-8-methyl-5,6-dihydro-4H-1-thia-3b,6-diazabenzo[e]cyclopenta[a]azulene-2-carboxylic acid dihydrochloride] | < 0.01 µM | 0.01 to 0.1 µM
